From patent US10071133B2, “Method for destroying exosomes, kit for destroying exosomes, and method for isolating exosomes derived from normal cells” (priority 2015, dated 2018)
Ends that are not written are not given here.

Legend:
[1] = test system: exosome fraction B derived from human breast cancer cells (MDA-MB-231-luc-D3H2LN); assay: Extraction of microRNA (miR-21) from exosomes derived from human breast cancer cells, real-time PCR; format: biochemical; settings: 100 μM peptide, 1×10^11 particles/mL exosomes, 0.4 U/μL RNase inhibitor, 37° C., 24 hours; without peptide 8×10^−14M
Experimental: (§1) A cell suspension of cell line MDA-MB-231-luc-D3H2LN derived from human breast cancer (=MM231-luc-D3H2LN, provided by the National Cancer Center Research Institute) was seeded in a dish containing RPMI 1640 medium (manufactured by Thermo Fisher Scientific Inc.) containing 10% fetal bovine serum. Subsequently, the cell line was grown at 37° C. under the condition that CO2 concentration was set to 5 volume % using a CO2 incubator, and then the medium was replaced with Advanced RPMI 1640 medium (manufactured by Thermo Fisher Scientific Inc.), followed by culturing for 48 hours, and therefore the culture solution containing exosomes was obtained. This culture solution was centrifuged at 2,000 G for 10 minutes to remove the precipitate, followed by centrifugation at 110,000 G for 70 minutes to precipitate the exosomes, and therefore an exosome fraction B was recovered. The recovered exosome fraction B was suspended in a phosphate buffered saline (PBS) and then stored at 4° C. Storage samples were lightly suspended with a vortex mixer (vibration mixer) before use.
(§2) MicroRNA (miR-21 or miR-16) in the reaction solution was subjected to reverse transcription PCR using reverse transcription primers (manufactured by Thermo Fisher Scientific Inc., Taqman microRNA Assays, RT primers, and hsa-mir-21 or hsa-mir-16) and a reverse transcriptase (manufactured by Thermo Fisher Scientific Inc., Taqman microRNA RT kit).
(§3) The reverse transcription PCR solution obtained by the above described method was processed and by comparing the number of cycles on a calibration curve of microRNA using Taqman Assay primer (manufactured by Thermo Fisher Scientific Inc., Taqman microRNA Assays, Taqman Assay primer, and hsa-mir-21 or hsa-mir-16) and Real-Time PCR Master Mixes (manufactured by Thermo Fisher Scientific Inc., TaqMan Universal PCR Master Mix II, w/UNG) with StepOnePlus Real-Time PCR System, MiR-21 or miR-16 was quantified. The calibration curve of microRNA was created using synthetic miR-21 (manufactured by Sigma-Aldrich Co. LLC.) or synthetic miR-16 (manufactured by Sigma-Aldrich Co. LLC.).
(§4) 10 μL of the exosome fraction was prepared such that PBS contains 1×10^11 particles/mL of the exosome fraction B derived from human breast cancer cells, various antimicrobial peptides shown in the following Table 2 adjusted to 100 μM, and 0.4 U/μL of RNase inhibitor (manufactured by Toyobo Co., Ltd.), followed by incubation by being left to stand at 37° C. for 24 hours.
MicroRNA eluted into the solution was purified and recovered from the incubated solution of Example 10 above and Comparative Example 6 above by the following method.
First, 160 μL of PBS was added to the reaction solution, and then the solution was added to a centrifugal filter (manufactured by Millipore Corporation, Amicon Ultra 0.5 mL, 100K filter) and centrifuged at 14,000 G for 2 minutes. Subsequently, 100 μL of the centrifuged filtrate was recovered and introduced into a 1.5 mL tube. Next, 350 μL of RLT buffer (manufactured by QIAGEN, attached with RNeasy mini kit) and 675 μL of ethanol were added and mixed in the 1.5 mL tube. The obtained mixture was separated into two parts, and each of the separates was added onto a spin column (manufactured by QIAGEN, attached with RNeasy mini kit) followed by centrifugation at 8,000 G for 15 seconds, and the entire amount of the mixture was passed through the spin column. Thereafter, 500 μL of RPE buffer (manufactured by QIAGEN, attached with RNeasy mini kit) was added thereto and centrifuged at 8,000 G for 15 seconds. Furthermore, 500 μL of the RPE buffer was added to the spin column once more and centrifuged at 8,000 G for 15 seconds. Thereafter, the spin column was centrifuged at 14,000 G for 1 minute to remove the residual RPE buffer. Next, 30 μL of RNase free water (manufactured by QIAGEN, attached with RNeasy mini kit) was added to the spin column, left for 1 minute, and then centrifuged at 14,000 G for 1 minute, and the eluate obtained thereby was recovered. […]

[2] = test system: exosome fraction B derived from human breast cancer cells versus exosome fraction derived from human mammary gland cells (MCF-10A, normal cells); assay: Selectivity: miR-16 ratio, breast cancer exosomes versus mammary gland normal cell exosomes (Formula 1); format: biochemical; settings: for mir-16 ratio: Formula 1, cancer/normal (MCF-10A), 100 μM peptide, 37° C., 24 hours; for Selectivity: from miR-16 ratio versus Comparative Example 8, breast cancer vs MCF-10A exosomes
Experimental: as §1
A cell suspension of cell line MCF 10A derived from human mammary epithelial cells (provided by the National Cancer Center Research Institute) was seeded in a dish containing Mammary Epithelium Cell Basal Medium (manufactured by Lonza). Subsequently, the cell line was grown at 37° C. under the condition that CO2 concentration was set to 5 volume % using a CO2 incubator, and then the medium was replaced with a fresh medium, followed by culturing for 48 hours, and the culture solution containing exosomes was obtained. This culture solution was centrifuged at 2,000 G for 10 minutes to remove the precipitate, followed by centrifugation at 110,000 G for 70 minutes to precipitate the exosomes, and an exosome fraction was recovered. The recovered exosome fraction was suspended in a phosphate buffered saline (PBS) and then stored at 4° C. Storage samples were lightly suspended with a vortex mixer (vibration mixer) before use.
as §2, §3
as §4, with “Table 4” for “Table 2”
Thereafter, the eluted MicroRNA (miR-16) was purified and recovered from the incubated solution by the same method as the above described method for extraction from the incubated solution of Examples 10 and 11 above and Comparative Examples 6 and 7 above. […]

Molecule	Destructive activity (concentration of microRNA miR-21 in eluate) [1]	mir-16 ratio [2]	Selectivity [2]
9R: amino acid sequence RRRRRNWMWC	B (the concentration of microRNA is 10×10^−14M to 50×10^−14M)	–	–
CCCCCCCCCCCCCCCC[N+](C)(C)C.[Br-] [1% CTAB, CTAB, reference compound]	D (the concentration of microRNA is less than 10×10^−14M)	–	–
N=C(N)N [4M guanidine, guanidine, reference compound]	D (the concentration of microRNA is less than 10×10^−14M)	–	–
CC[C@H](C)[C@H](NC(=O)CN)C(=O)NCC(=O)N[C@@H](C)C(=O)N[C@H](C(=O)N[C@@H](CC(C)C)C(=O)N[C@@H](CCCCN)C(=O)N[C@H](C(=O)N[C@@H](CC(C)C)C(=O)N[C@H](C(=O)N[C@H](C(=O)NCC(=O)N[C@@H](CC(C)C)C(=O)N1CCC[C@H]1C(=O)N[C@@H](C)C(=O)N[C@@H](CC(C)C)C(=O)N[C@H](C(=O)N[C@@H](CO)C(=O)N[C@@H](Cc1c[nH]c2ccccc12)C(=O)N[C@H](C(=O)N[C@@H](CCCCN)C(=O)N[C@@H](CCCNC(=N)N)C(=O)N[C@@H](CCCCN)C(=O)N[C@@H](CCCNC(=N)N)C(=O)N[C@@H](CCC(N)=O)C(=O)N[C@@H](CCC(N)=O)C(N)=O)[C@@H](C)CC)[C@@H](C)CC)[C@@H](C)O)[C@@H](C)O)C(C)C)C(C)C [Melittin]	A (the concentration of microRNA is 50×10^−14M or more)	42	B (evaluated as “B” in a case where the calculated miR-16 value was higher than the miR-16 ratio of Comparative Example 8)
CCCCCCCCCCCCCCCCCCOP(=O)([O-])OCC[P+](C)(C)C [Octadecylphosphophosphoniumcholine, reference compound]	D (the concentration of microRNA is less than 10×10^−14M)	–	–
(Gln^53)-Connexin 37 (51-58) [(Gln^53)-Connexin 37(51-58)]	D (the concentration of microRNA is less than 10×10^−14M)	–	–
(HHPHG)3	B (the concentration of microRNA is 10×10^−14M to 50×10^−14M)	–	–
(HHPHG) 2 (HHPHGHHPHG) [(HHPHG)2]	B (the concentration of microRNA is 10×10^−14M to 50×10^−14M)	–	–
(HHPHG) 4 [(HHPHG)4]	B (the concentration of microRNA is 10×10^−14M to 50×10^−14M)	–	–
Alloferon 1 (HGVSGHGQHGVHG)	D (the concentration of microRNA is less than 10×10^−14M)	–	–
Ascaphin-8	B (the concentration of microRNA is 10×10^−14M to 50×10^−14M)	–	–
Benzalkonium-Cl [1% Benzalkonium-Cl, reference compound]	D (the concentration of microRNA is less than 10×10^−14M)	–	–
Buforin IIb	B (the concentration of microRNA is 10×10^−14M to 50×10^−14M)	–	–
C-Reactive Protein (CRP) (174-185) (IYLGGPFSPNVL; UniProt P02741 192-203, looked up, fragment)	D (the concentration of microRNA is less than 10×10^−14M)	–	–
Caerin 1.1	A (the concentration of microRNA is 50×10^−14M or more)	27	B (evaluated as “B” in a case where the calculated miR-16 value was higher than the miR-16 ratio of Comparative Example 8)
Cecropin B (KWKVFKKIEKMGRNIRNGIVKAGPAIAVLGEAKAL-NH2)	B (the concentration of microRNA is 10×10^−14M to 50×10^−14M)	–	–
Defensin HNP-1	B (the concentration of microRNA is 10×10^−14M to 50×10^−14M)	–	–
Dermaseptin	B (the concentration of microRNA is 10×10^−14M to 50×10^−14M)	–	–

Molecule	Destructive activity (concentration of microRNA miR-21 in eluate) [1]	mir-16 ratio [2]	Selectivity [2]
Dermcidin-1L (SSLLEKGLDGAKKAVGGLGKLGKDAVEDLESVGKGAVHDVKDVLDSVL)	D (the concentration of microRNA is less than 10×10^−14M)	–	–
Epinecidin-1 (GFIFHIIKGLFHAGKMIHGLV-NH2)	B (the concentration of microRNA is 10×10^−14M to 50×10^−14M)	–	–
Gageostatin C	D (the concentration of microRNA is less than 10×10^−14M)	–	–
Hepcidin-20 (ICIFCCGCCHRSKCGMCCKT; ends and bridges not checked; cysteine pairing not given here; UniProt P81172 65-84, looked up)	D (the concentration of microRNA is less than 10×10^−14M)	–	–
Histatin-5	B (the concentration of microRNA is 10×10^−14M to 50×10^−14M)	–	–
Macropin 1	B (the concentration of microRNA is 10×10^−14M to 50×10^−14M)	–	–
Maculatin 3.1	B (the concentration of microRNA is 10×10^−14M to 50×10^−14M)	–	–
Magainin I (GIGKFLHSAGKFGKAFVGEIMKS) [Megainin I]	B (the concentration of microRNA is 10×10^−14M to 50×10^−14M)	–	–
NK-2	B (the concentration of microRNA is 10×10^−14M to 50×10^−14M)	–	–
NRC-03	B (the concentration of microRNA is 10×10^−14M to 50×10^−14M)	–	–
NRC-07	B (the concentration of microRNA is 10×10^−14M to 50×10^−14M)	–	–
PTP7	D (the concentration of microRNA is less than 10×10^−14M)	–	–
Pardaxin 4	B (the concentration of microRNA is 10×10^−14M to 50×10^−14M)	–	–
Sesquin (KTCENLADTY)	D (the concentration of microRNA is less than 10×10^−14M)	–	–
Short α-helical peptides (2) (GIIKKIIKKIIKKIIKKI-NH2)	B (the concentration of microRNA is 10×10^−14M to 50×10^−14M)	–	–
TsAP-2	B (the concentration of microRNA is 10×10^−14M to 50×10^−14M)	–	–
Tuftsin	B (the concentration of microRNA is 10×10^−14M to 50×10^−14M)	–	–
